In US11000033B2, “Ketone or oxime compound, and herbicide” (NISSAN CHEMICAL CORPORATION, priority 2014, dated 2021):

Key:
Format in all cases: in vivo
wheat = assay: Test Example 5: effect on crop by foliage application, plastic box (symbol e); conditions: 320 g/ha, 3 weeks after application
Outline: (§1)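 Greenhouse culture at 25° C. to 30° C. followed spot-like sowing into sterilized diluvial soil, with seed covered by roughly 1.5 cm of soil.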

Leptochloa chinensis = assay: Test Example 3: herbicidal effect by foliage application, Wagner pot (symbol D); conditions: application herbicide amount 320 g/ha
Outline: (§2)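 Scoring took place 3 weeks after application, using fixed criteria. Plants had been raised from seed for 14 days at 25 to 30 °C in submerged alluvial soil before a diluted emulsion of the test compound was sprayed uniformly on the leaves.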

[1] = tested on: directly sowed rice plant; assay: Test Example 3: effect on crop by foliage application, Wagner pot (symbol b); conditions: application herbicide amount 320 g/ha
Outline: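 Alluvial soil in a 1/10000-are Wagner pot was flooded to a water depth of 0.1–0.5 cm. Echinochloa crus-galli var. crus-galli, Leptochloa chinensis, Cyperus difformis and rice were sown into it and grown in a greenhouse at 25–30 °C.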

Setaria viridis = assay: Test Example 5: herbicidal effect by foliage application, plastic box (symbol G); conditions: 320 g/ha, 3 weeks after application
Outline: (§3)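 Greenhouse foliar test: seedlings at 14 days, grown 25° C. to 30° C. in sterilized diluvial soil; compound applied as an aqueous dilution of an emulsion; response read 3 weeks after spraying.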

Stellaria media = assay: Test Example 5: herbicidal effect by foliage application, plastic box (symbol P); conditions: 320 g/ha, 3 weeks after application
Outline: as §3

[2] = tested on: Echinochloa crus-galli var. crus-galli; assay: Test Example 3: herbicidal effect by foliage application, Wagner pot (symbol H); conditions: application herbicide amount 320 g/ha
Outline: as §2

Avena fatua = assay: Test Example 5: herbicidal effect by foliage application, plastic box (symbol I); conditions: 320 g/ha, 3 weeks after application
Outline: as §3

Veronica persica = assay: Test Example 5: herbicidal effect by foliage application, plastic box (symbol R); conditions: 320 g/ha, 3 weeks after application
Outline: as §3

Apera spica-venti = assay: Test Example 5: herbicidal effect by foliage application, plastic box (symbol L); conditions: 320 g/ha, 3 weeks after application
Outline: as §3

Digitaria ciliaris = assay: Test Example 5: herbicidal effect by foliage application, plastic box (symbol F); conditions: 320 g/ha, 3 weeks after application
Outline: as §3

Amaranthus retroflexus = assay: Test Example 5: herbicidal effect by foliage application, plastic box (symbol N); conditions: 320 g/ha, 3 weeks after application
Outline: as §3

rice plant = assay: Test Example 5: effect on crop by foliage application, plastic box (symbol b); conditions: 320 g/ha, 3 weeks after application
Outline: as §1

Chenopodium album = assay: Test Example 5: herbicidal effect by foliage application, plastic box (symbol O); conditions: 320 g/ha, 3 weeks after application
Outline: as §3

rapeseed = assay: Test Example 5: effect on crop by foliage application, plastic box (symbol g); conditions: 320 g/ha, 3 weeks after application
Outline: as §1

Lolium multiflorum Lam. = assay: Test Example 5: herbicidal effect by foliage application, plastic box (symbol K); conditions: 320 g/ha, 3 weeks after application
Outline: as §3

soybean = assay: Test Example 5: effect on crop by foliage application, plastic box (symbol d); conditions: 320 g/ha, 3 weeks after application
Outline: as §1

Alopecurus myosuroides = assay: Test Example 5: herbicidal effect by foliage application, plastic box (symbol J); conditions: 320 g/ha, 3 weeks after application
Outline: as §3

Abutilon theophrasti = assay: Test Example 5: herbicidal effect by foliage application, plastic box (symbol M); conditions: 320 g/ha, 3 weeks after application
Outline: as §3

[3] = tested on: Echinochloa crus-galli var. crus-galli; assay: Test Example 5: herbicidal effect by foliage application, plastic box (symbol H); conditions: 320 g/ha, 3 weeks after application
Outline: as §3

corn = assay: Test Example 5: effect on crop by foliage application, plastic box (symbol c); conditions: 320 g/ha, 3 weeks after application
Outline: as §1

Galium spurium = assay: Test Example 5: herbicidal effect by foliage application, plastic box (symbol Q); conditions: 320 g/ha, 3 weeks after application
Outline: as §3

beet = assay: Test Example 5: effect on crop by foliage application, plastic box (symbol f); conditions: 320 g/ha, 3 weeks after application
Outline: as §1

Cyperus difformis = assay: Test Example 3: herbicidal effect by foliage application, Wagner pot (symbol E); conditions: application herbicide amount 320 g/ha
Outline: as §2

SMILES: CC(=O)CC1CC(O)=C(c2c(C)cc(-n3ccnc3)cc2C)C1=O (centres unmarked) [7-025]
- e: wheat, effect on crop (criteria of Test Example 1) (wheat): 0 (Herbicidal ratio of 5% or lower (almost no effect))
- herbicidal effect on D (Leptochloa chinensis), grade 0-5 (Leptochloa chinensis): 3 (Herbicidal ratio of 40% or higher and lower than 70%)
- effect on crop b (directly sowed rice plant), grade 0-5 [1]: 0 (Herbicidal ratio of 5% or lower (almost no effect))
- G: Setaria viridis, herbicidal effect (criteria of Test Example 1) (Setaria viridis): 0 (Herbicidal ratio of 5% or lower (almost no effect))
- P: Stellaria media, herbicidal effect (criteria of Test Example 1) (Stellaria media): 0 (Herbicidal ratio of 5% or lower (almost no effect))
- herbicidal effect on H (Echinochloa crus-galli var. crus-galli), grade 0-5 [2]: 1 (Herbicidal ratio of 5% or higher and lower than 20%)
- I: Avena fatua, herbicidal effect (criteria of Test Example 1) (Avena fatua): 0 (Herbicidal ratio of 5% or lower (almost no effect))
- R: Veronica persica, herbicidal effect (criteria of Test Example 1) (Veronica persica): 0 (Herbicidal ratio of 5% or lower (almost no effect))
- L: Apera spica-venti, herbicidal effect (criteria of Test Example 1) (Apera spica-venti): 0 (Herbicidal ratio of 5% or lower (almost no effect))
- F: Digitaria ciliaris, herbicidal effect (criteria of Test Example 1) (Digitaria ciliaris): 3 (Herbicidal ratio of 40% or higher and lower than 70%)
- N: Amaranthus retroflexus, herbicidal effect (criteria of Test Example 1) (Amaranthus retroflexus): 0 (Herbicidal ratio of 5% or lower (almost no effect))
- b: directly sowed rice plant, effect on crop (criteria of Test Example 1) (rice plant): 0 (Herbicidal ratio of 5% or lower (almost no effect))
- O: Chenopodium album, herbicidal effect (criteria of Test Example 1) (Chenopodium album): 0 (Herbicidal ratio of 5% or lower (almost no effect))
- g: rapeseed, effect on crop (criteria of Test Example 1) (rapeseed): 0 (Herbicidal ratio of 5% or lower (almost no effect))
- K: Lolium multiflorum Lam., herbicidal effect (criteria of Test Example 1) (Lolium multiflorum Lam.): 0 (Herbicidal ratio of 5% or lower (almost no effect))
- d: soybean, effect on crop (criteria of Test Example 1) (soybean): 0 (Herbicidal ratio of 5% or lower (almost no effect))
- J: Alopecurus myosuroides, herbicidal effect (criteria of Test Example 1) (Alopecurus myosuroides): 0 (Herbicidal ratio of 5% or lower (almost no effect))
- M: Abutilon theophrasti, herbicidal effect (criteria of Test Example 1) (Abutilon theophrasti): 0 (Herbicidal ratio of 5% or lower (almost no effect))
- H: Echinochloa crus-galli var. crus-galli, herbicidal effect (criteria of Test Example 1) [3]: 0 (Herbicidal ratio of 5% or lower (almost no effect))
- c: corn, effect on crop (criteria of Test Example 1) (corn): 0 (Herbicidal ratio of 5% or lower (almost no effect))
- Q: Galium spurium, herbicidal effect (criteria of Test Example 1) (Galium spurium): 0 (Herbicidal ratio of 5% or lower (almost no effect))
- f: beet, effect on crop (criteria of Test Example 1) (beet): 0 (Herbicidal ratio of 5% or lower (almost no effect))
- herbicidal effect on E, grade 0-5 (Cyperus difformis): 0 (Herbicidal ratio of 5% or lower (almost no effect))
